Laboratory results reported in US10392347B2, “2,4-dihydroxy-nicotinamides as APJ agonists” (BRISTOL-MYERS SQUIBB COMPANY, priority 2015, dated 2019).

Biological target: T1, human APJ receptor (Homo sapiens, UniProt P35414)
T1 construct: expressed in transfected cells
T1 sequence (P35414 1-380): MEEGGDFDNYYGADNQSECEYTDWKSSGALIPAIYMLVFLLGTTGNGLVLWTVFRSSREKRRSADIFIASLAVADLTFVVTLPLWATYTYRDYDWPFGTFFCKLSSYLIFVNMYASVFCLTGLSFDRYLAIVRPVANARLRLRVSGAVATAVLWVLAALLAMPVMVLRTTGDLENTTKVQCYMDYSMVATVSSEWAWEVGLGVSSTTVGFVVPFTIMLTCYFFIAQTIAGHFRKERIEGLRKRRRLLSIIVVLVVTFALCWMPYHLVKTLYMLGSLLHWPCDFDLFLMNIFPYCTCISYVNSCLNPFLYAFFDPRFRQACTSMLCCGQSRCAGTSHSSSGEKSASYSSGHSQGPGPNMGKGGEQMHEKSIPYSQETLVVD
Test: Intracellular cAMP accumulation assay (APJ hcAMP, HTRF)
Assay type: cell-based
Conditions: HEK293 cells stably expressing human APJ; read-out: Human APJ cAMP EC50 Potency range
Procedure: Intracellular cAMP Accumulation Assay
HEK293 cells stably expressing human APJ receptor were used to assess the activity of compounds. Cultured cells were detached and resuspended in the cAMP Homogeneous Time-Resolved Fluorescence (HTRF) assay buffer (Cisbio cat; #62AM4PEJ). […] Serial dilutions of a compound together with assay buffer containing […] and 2 μM forskolin were added to each well containing 5,000 cells and incubated for 30 minutes at room temperature. Subsequently, cAMP D2 reagent was added in the lysis buffer followed by the EuK antibody (Cisbio; cat #62AM4PEJ) and incubated for 60 min. The fluorescence emission ratio was measured using fluorometer. The intracellular cAMP concentrations (compound-stimulated inhibition of forskolin-mediated cAMP production) were calculated by extrapolation from a standard curve using known cAMP concentrations. The EC50 values were obtained by fitting the data to a sigmoidal concentration-response curve with variable slope.
The EC50 value of each compound is presented at the end of the example description.
The biological activity of the exemplified compounds of this invention determined by the assay described above is shown at the end of each example.

| Structure (SMILES) | EC50 [nM] |
| --- | --- |
| CCOCc1nc(O)c(C(=O)N2CC[C@H](c3ccccc3)C2)c(O)c1-c1c(OC)cc(F)cc1OC [Example 70] | 10 to 100 |

Same assay, conditions: Table 1; HEK293 cells stably expressing human APJ, forskolin-stimulated cAMP; read-out: APJ cAMP EC50

| Structure (SMILES) | EC50 [nM] |
| --- | --- |
| CCCCc1nc(O)c(C(=O)N2CCC(c3ccc(C(N)=O)cc3)CC2)c(O)c1-c1c(OC)cccc1OC [Example 24, 4-{1-[6-butyl-5-(2,6-dimethoxyphenyl)-2,4-dihydroxypyridine-3-carbonyl]piperidin-4-yl}benzamide] | 10 to 100 |
| CCCCc1nc(O)c(C(=O)N2CCN(C(c3ccccc3)c3ccccc3)CC2)c(O)c1-c1c(OC)cccc1OC [Example 16, 6-butyl-5-(2,6-dimethoxyphenyl)-3-[4-(diphenylmethyl)piperazine-1-carbonyl]pyridine-2,4-diol] | 0.01 to 10 |
| CCCCc1nc(O)c(C(=O)N2CCN(c3nccc(C(F)(F)F)n3)CC2)c(O)c1-c1c(OC)cccc1OC [Example 13, 6-butyl-5-(2,6-dimethoxyphenyl)-3-{4-[4-(trifluoromethyl)pyrimidin-2-yl]piperazine-1-carbonyl}pyridine-2,4-diol] | 10 to 100 |
| CCOCc1nc(O)c(C(=O)N2CC[C@@H](c3ccccc3)C2)c(O)c1-c1c(OC)cccc1OC [Example 25, 5-(2,6-dimethoxyphenyl)-6-(ethoxymethyl)-3-[(3S)-3-phenylpyrrolidine-1-carbonyl]pyridine-2,4-diol] | 10 to 100 |
| CCCCc1nc(O)c(C(=O)N2CC(c3cccc(Cl)c3)C2)c(O)c1-c1c(OC)cccc1OC [Example 34, 6-butyl-3-[3-(3-chlorophenyl)azetidine-1-carbonyl]-5-(2,6-dimethoxyphenyl)pyridine-2,4-diol] | 0.01 to 10 |
| CCCCc1nc(O)c(C(=O)N2CCN(Cc3cccc(F)c3)CC2)c(O)c1-c1c(OC)cccc1OC [Example 45, 6-butyl-5-(2,6-dimethoxyphenyl)-3-{4-[(3-fluorophenyl)methyl]piperazine-1-carbonyl}pyridine-2,4-diol] | 0.01 to 10 |
| CCCCc1nc(O)c(C(=O)N2CCN(c3cccc(Cl)c3)CC2)c(O)c1-c1c(OC)cccc1OC [Example 58, 6-butyl-3-[4-(3-chlorophenyl)piperazine-1-carbonyl]-5-(2,6-dimethoxyphenyl)pyridine-2,4-diol] | 10 to 100 |
| CCCCc1nc(O)c(C(=O)N2CCN(c3ccccc3Cl)CC2)c(O)c1-c1c(OC)cccc1OC [Example 57, 6-butyl-3-[4-(2-chlorophenyl)piperazine-1-carbonyl]-5-(2,6-dimethoxyphenyl)pyridine-2,4-diol] | 10 to 100 |
| CCCCc1nc(O)c(C(=O)N2CCCN(c3nnnn3-c3ccccc3)CC2)c(O)c1-c1c(OC)cccc1OC [Example 53, 6-butyl-5-(2,6-dimethoxyphenyl)-3-[4-(1-phenyl-1H-1,2,3,4-tetrazol-5-yl)-1,4-diazepane-1-carbonyl]pyridine-2,4-diol] | 10 to 100 |
| CCCCc1nc(O)c(C(=O)N2CCN(C(=O)c3cccc(F)c3)CC2)c(O)c1-c1c(OC)cccc1OC [Example 42, 6-butyl-5-(2,6-dimethoxyphenyl)-3-[4-(3-fluorobenzoyl)piperazine-1-carbonyl]pyridine-2,4-diol] | 0.01 to 10 |
| CCCCc1nc(O)c(C(=O)N2CCC(c3cc(-c4ccco4)n[nH]3)CC2)c(O)c1-c1c(OC)cccc1OC [Example 20, 6-butyl-5-(2,6-dimethoxyphenyl)-3-{4-[3-(furan-2-yl)-1H-pyrazol-5-yl]piperidine-1-carbonyl}pyridine-2,4-diol] | 10 to 100 |
| CCCCc1nc(O)c(C(=O)N2CCC(O)(c3ccc(Cl)cc3)CC2)c(O)c1-c1c(OC)cccc1OC [Example 47, 6-butyl-3-[4-(4-chlorophenyl)-4-hydroxypiperidine-1-carbonyl]-5-(2,6-dimethoxyphenyl)pyridine-2,4-diol] | 10 to 100 |
| CCCCc1nc(O)c(C(=O)N2CCN(c3ccc(OCCOC)cc3)CC2)c(O)c1-c1c(OC)cccc1OC [Example 7, 6-butyl-5-(2,6-dimethoxyphenyl)-3-{4-[4-(2-methoxyethoxy)phenyl]piperazine-1-carbonyl}pyridine-2,4-diol] | 100 to 300 |
| CCCCc1nc(O)c(C(=O)N2CCN(C(=O)c3ccccc3)CC2)c(O)c1-c1c(OC)cccc1OC [Example 41, 3-(4-benzoylpiperazine-1-carbonyl)-6-butyl-5-(2,6-dimethoxyphenyl)pyridine-2,4-diol] | 0.01 to 10 |

Same assay, conditions: Table 2; HEK293 cells stably expressing human APJ, forskolin-stimulated cAMP; read-out: APJ cAMP EC50

| Structure (SMILES) | EC50 [nM] |
| --- | --- |
| CCCCc1nc(O)c(C(=O)N2CCC(c3cccc(Cl)c3)C2)c(O)c1-c1c(OC)cccc1OC (single isomer, unassigned) [Example 37, 6-butyl-3-[3-(3-chlorophenyl)pyrrolidine-1-carbonyl]-5-(2,6-dimethoxyphenyl)pyridine-2,4-diol] | 0.01 to 10 |
| CCCCc1nc(O)c(C(=O)N2CCC(c3cccc(Cl)c3)C2)c(O)c1-c1c(OC)cccc1OC (single isomer, unassigned) [Example 38, 6-butyl-3-[3-(3-chlorophenyl)pyrrolidine-1-carbonyl]-5-(2,6-dimethoxyphenyl)pyridine-2,4-diol] | 0.01 to 10 |
| CCCCc1nc(O)c(C(=O)N2CCC(c3ccc(F)cc3)C2)c(O)c1-c1c(OC)cccc1OC (single isomer, unassigned) [Example 39, 6-butyl-5-(2,6-dimethoxyphenyl)-3-[3-(4-fluorophenyl)pyrrolidine-1-carbonyl]pyridine-2,4-diol] | 0.01 to 10 |

Same assay, conditions: Table 3; HEK293 cells stably expressing human APJ, forskolin-stimulated cAMP; read-out: APJ cAMP EC50

| Structure (SMILES) | EC50 [nM] |
| --- | --- |
| CCCCc1nc(O)c(C(=O)N2CCC(c3ncccc3F)C2)c(O)c1-c1c(OC)cccc1OC (stereo not shown) [Example 81, 6-butyl-5-(2,6-dimethoxyphenyl)-3-[3-(3-fluoropyridin-2-yl)pyrrolidine-1-carbonyl]pyridine-2,4-diol] | 0.01 to 10 |
| CCCCc1nc(O)c(C(=O)N2CCC(c3ncccc3F)C2)c(O)c1-c1c(OC)cccc1OC (stereo not shown) [Example 78, 6-butyl-5-(2,6-dimethoxyphenyl)-3-[3-(3-fluoropyridin-2-yl)pyrrolidine-1-carbonyl]pyridine-2,4-diol] | 0.01 to 10 |

Same assay, conditions: Table 4; HEK293 cells stably expressing human APJ, forskolin-stimulated cAMP; read-out: Human cAMP EC50

| Structure (SMILES) | EC50 [nM] |
| --- | --- |
| CCOCc1nc(O)c(C(=O)N2CCN(Cc3cccc(F)c3)CC2)c(O)c1-c1ccccc1OC [Example 91, 6-(ethoxymethyl)-3-{4-[(3-fluorophenyl)methyl]piperazine-1-carbonyl}-5-(2-methoxyphenyl)pyridine-2,4-diol] | 10 to 100 |
| CCCCc1nc(O)c(C(=O)N2CCN(Cc3cccc(Cl)c3Cl)CC2)c(O)c1-c1cccc(OC)c1OC [Example 112, 6-butyl-3-{4-[(2,3-dichlorophenyl)methyl]piperazine-1-carbonyl}-5-(2,3-dimethoxyphenyl)pyridine-2,4-diol] | 0.01 to 10 |
| CCCCc1nc(O)c(C(=O)N2CCN(Cc3cccc(C(F)(F)F)c3)CC2)c(O)c1-c1c(OC)cccc1OC [Example 107, 6-butyl-5-(2,6-dimethoxyphenyl)-3-(4-{[3-(trifluoromethyl)phenyl]methyl}piperazine-1-carbonyl)pyridine-2,4-diol] | 100 to 300 |
| CCCCc1nc(O)c(C(=O)N(C)CCNC(=O)c2ccccc2)c(O)c1-c1c(OC)cccc1OC [Example 95, N-(2-{1-[6-butyl-5-(2,6-dimethoxyphenyl)-2,4-dihydroxypyridin-3-yl]-N-methylformamido}ethyl)benzamide] | 10 to 100 |

Same assay, conditions: Table 6; HEK293 cells stably expressing human APJ, forskolin-stimulated cAMP; read-out: Human cAMP EC50

| Structure (SMILES) | EC50 [nM] |
| --- | --- |
| CCOCc1nc(O)c(C(=O)N2CCC(c3c(F)cccc3F)C2)c(O)c1-c1c(OC)cccc1OC (stereo not shown) [Example 134, 3-[3-(2,6-difluorophenyl)pyrrolidine-1-carbonyl]-5-(2,6-dimethoxyphenyl)-6-(ethoxymethyl)-4-hydroxy-1,2-dihydropyridin-2-one] | 0.01 to 10 |

Same assay, conditions: Table 7; HEK293 cells stably expressing human APJ, forskolin-stimulated cAMP; read-out: Human cAMP EC50

| Structure (SMILES) | EC50 [nM] |
| --- | --- |
| CCCCc1nc(O)c(C(=O)N2CCN(Cc3cccc(F)c3F)CC2)c(O)c1-c1cccc(CC#N)c1 [Example 139, 2-[3-(2-butyl-5-{4-[(2,3-difluorophenyl)methyl]piperazine-1-carbonyl}-4,6-dihydroxypyridin-3-yl)phenyl]acetonitrile] | 0.01 to 10 |
| CCCCc1nc(O)c(C(=O)N2CCC(c3ncc(F)cc3F)C2)c(O)c1-c1cccc(CO)c1 (stereo not shown) [Example 144, 6-butyl-3-[3-(3,5-difluoropyridin-2-yl)pyrrolidine-1-carbonyl]-5-[3-(hydroxymethyl)phenyl]pyridine-2,4-diol] | 0.01 to 10 |
| CCCCc1nc(O)c(C(=O)N2CCC(c3ncc(F)cc3F)C2)c(O)c1-c1cccc(CO)c1 (stereo not shown) [Example 147, 6-butyl-3-[3-(3,5-difluoropyridin-2-yl)pyrrolidine-1-carbonyl]-5-[3-(hydroxymethyl)phenyl]pyridine-2,4-diol] | 0.01 to 10 |
